pIC50: −log10 of the molar value.
How the values were obtained:
[1] = Inhibition of influenza A virus Neuraminidase using 2-(4-methylumbelliferyl)-a-D-acetylneuraminic acid as substrate incubated for 30 mins by fluorescence based analysis
[2] = molecular target: T1, Maltase-glucoamylase (Homo sapiens, UniProt O43451); assay: Inhibition of alpha-glucosidase (unknown origin)
[3] = molecular target: T1, Maltase-glucoamylase; assay: Inhibition of alpha-Glucosidase (unknown origin) using pNPG as substrate incubated for 20 mins by micro plate reader analysis

T1 sequence (O43451 whole entry): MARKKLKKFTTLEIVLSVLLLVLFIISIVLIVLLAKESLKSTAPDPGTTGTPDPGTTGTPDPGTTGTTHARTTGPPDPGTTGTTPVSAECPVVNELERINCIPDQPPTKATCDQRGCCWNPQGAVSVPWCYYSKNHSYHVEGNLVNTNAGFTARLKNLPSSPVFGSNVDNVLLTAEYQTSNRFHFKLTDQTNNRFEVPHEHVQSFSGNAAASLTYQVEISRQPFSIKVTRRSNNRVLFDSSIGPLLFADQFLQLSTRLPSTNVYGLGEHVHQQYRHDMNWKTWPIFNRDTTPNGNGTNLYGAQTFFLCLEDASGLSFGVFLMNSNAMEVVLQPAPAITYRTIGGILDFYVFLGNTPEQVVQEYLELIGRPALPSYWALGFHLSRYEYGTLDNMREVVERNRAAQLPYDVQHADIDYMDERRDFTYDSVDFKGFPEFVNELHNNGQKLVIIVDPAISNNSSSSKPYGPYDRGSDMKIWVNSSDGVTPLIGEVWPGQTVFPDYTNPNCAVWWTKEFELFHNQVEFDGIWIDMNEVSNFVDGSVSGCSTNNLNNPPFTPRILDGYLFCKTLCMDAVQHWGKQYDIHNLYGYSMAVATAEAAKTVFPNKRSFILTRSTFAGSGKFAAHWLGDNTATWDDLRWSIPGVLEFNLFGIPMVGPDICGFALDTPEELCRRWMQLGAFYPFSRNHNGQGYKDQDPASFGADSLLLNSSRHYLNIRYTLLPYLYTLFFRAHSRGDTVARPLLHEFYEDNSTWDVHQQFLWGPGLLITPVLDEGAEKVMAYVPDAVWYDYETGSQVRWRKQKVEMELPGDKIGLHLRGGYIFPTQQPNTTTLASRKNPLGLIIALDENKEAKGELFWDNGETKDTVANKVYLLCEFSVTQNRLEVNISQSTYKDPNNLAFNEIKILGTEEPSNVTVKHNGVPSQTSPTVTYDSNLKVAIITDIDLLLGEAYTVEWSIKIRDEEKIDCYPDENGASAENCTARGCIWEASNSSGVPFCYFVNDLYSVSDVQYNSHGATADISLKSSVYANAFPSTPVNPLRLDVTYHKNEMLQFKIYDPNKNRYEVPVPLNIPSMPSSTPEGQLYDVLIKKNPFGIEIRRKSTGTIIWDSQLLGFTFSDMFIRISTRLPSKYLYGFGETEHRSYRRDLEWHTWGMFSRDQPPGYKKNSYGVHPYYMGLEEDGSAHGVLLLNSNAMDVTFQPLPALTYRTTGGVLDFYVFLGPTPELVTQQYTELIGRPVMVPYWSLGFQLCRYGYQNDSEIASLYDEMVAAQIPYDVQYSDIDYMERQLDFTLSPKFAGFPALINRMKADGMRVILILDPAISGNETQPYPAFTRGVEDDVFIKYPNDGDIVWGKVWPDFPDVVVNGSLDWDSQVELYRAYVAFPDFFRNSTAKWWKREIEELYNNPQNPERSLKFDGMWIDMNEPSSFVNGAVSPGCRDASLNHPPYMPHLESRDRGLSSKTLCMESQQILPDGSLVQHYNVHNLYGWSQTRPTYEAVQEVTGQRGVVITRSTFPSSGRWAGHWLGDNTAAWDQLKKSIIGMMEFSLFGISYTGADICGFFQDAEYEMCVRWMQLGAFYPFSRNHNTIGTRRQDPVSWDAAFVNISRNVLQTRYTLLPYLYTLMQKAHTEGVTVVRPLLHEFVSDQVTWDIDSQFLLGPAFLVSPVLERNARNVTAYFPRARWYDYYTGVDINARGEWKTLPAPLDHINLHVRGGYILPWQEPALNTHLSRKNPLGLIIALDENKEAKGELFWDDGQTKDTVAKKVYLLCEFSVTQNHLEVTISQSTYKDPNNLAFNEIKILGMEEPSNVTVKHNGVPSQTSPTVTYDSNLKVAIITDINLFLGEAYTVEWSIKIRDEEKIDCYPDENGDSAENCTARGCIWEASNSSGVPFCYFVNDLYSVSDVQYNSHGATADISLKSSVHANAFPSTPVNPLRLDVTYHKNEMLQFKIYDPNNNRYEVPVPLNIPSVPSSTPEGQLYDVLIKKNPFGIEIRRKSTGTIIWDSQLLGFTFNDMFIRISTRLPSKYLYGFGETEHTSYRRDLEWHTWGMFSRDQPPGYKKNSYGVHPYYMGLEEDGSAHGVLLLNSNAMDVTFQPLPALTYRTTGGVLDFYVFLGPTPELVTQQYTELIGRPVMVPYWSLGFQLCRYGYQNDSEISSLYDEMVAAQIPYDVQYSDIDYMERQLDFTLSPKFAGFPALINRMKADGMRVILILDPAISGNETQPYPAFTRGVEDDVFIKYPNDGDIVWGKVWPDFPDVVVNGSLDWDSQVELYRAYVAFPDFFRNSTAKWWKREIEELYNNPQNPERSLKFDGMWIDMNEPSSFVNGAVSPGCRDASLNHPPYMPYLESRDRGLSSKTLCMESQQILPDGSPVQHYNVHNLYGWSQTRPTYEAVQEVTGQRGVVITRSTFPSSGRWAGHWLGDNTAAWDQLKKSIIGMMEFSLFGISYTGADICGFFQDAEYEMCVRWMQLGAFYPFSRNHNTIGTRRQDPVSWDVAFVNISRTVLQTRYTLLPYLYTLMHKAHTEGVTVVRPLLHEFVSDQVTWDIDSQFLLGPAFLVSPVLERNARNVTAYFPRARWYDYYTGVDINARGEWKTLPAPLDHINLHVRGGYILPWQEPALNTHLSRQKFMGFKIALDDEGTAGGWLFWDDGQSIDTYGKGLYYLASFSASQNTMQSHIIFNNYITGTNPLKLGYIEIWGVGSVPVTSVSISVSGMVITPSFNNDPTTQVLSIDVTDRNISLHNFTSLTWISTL

COC(=O)[C@@]1(C(=O)C(C)=O)C(C)=C(C)C=C2[C@]3(C=O)CC[C@H](OC(C)=O)C(C)(C)[C@H]3CC[C@@]21C
pIC50 [1]: 8.09

CC(C)=CCc1cc(C[C@@]2(C(=O)O)OC(=O)C(OC(C)(C)[C@@H](O)Cc3cc(C[C@@]4(C(=O)O)OC(=O)C(O)=C4c4ccc(O)cc4)ccc3O)=C2c2ccc(O)cc2)ccc1O
pIC50 [2]: 4.98

COc1cc2c(c(O)c1CO)C(=O)OC[C@@H]2O
pIC50 [3]: 2.85

Source: BindingDB's records for PubMed 35063731 (Chinese Academy of Sciences, 2022)
